Some test systems named below: KM-20L2; DMS-273; M19-MEL; RXF 631; LXFL 529; SNB-78; HOP-18; DMS-114; XF498.
Holding throughout (assay): growth of human tumour cells (NCI), 48 h

“And” between values parts separate entries of the source, which are not always exact repeats. Identical values can stand only once.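 Following 48 hours of exposure in 96-well plates, responses at five concentrations were used to interpolate endpoints linearly. The concentration for 50% growth inhibition is given as GI50.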 The source made the active and inactive calls. Rule as the data show it: active = GI50 up to about 1.1 µM and inactive = higher.

Turning to `Cc1cc(N(CCC#N)CCC#N)ccc1/C=C1\N=C(c2cc([N+](=O)[O-])ccc2Cl)N(c2cccc(Cl)c2)C1=O`, the GI50 in the assay on KM-20L2, in the assay with DMS-273, with M19-MEL, in the assay with RXF 631, in the assay with LXFL 529 and with SNB-78 was > 100 µM (inactive) in each case. For the same compound, the GI50 with HOP-18 and in the assay with DMS-114 was > 100 µM (inactive) in each case.
As to `COC(=O)CSc1ccccc1`, the GI50 in the assay with KM-20L2, with DMS-273, in the assay with M19-MEL, in the assay on RXF 631, in the assay on LXFL 529 and with SNB-78 was > 100 µM (inactive) each time. Further, the GI50 with HOP-18 and in the assay with XF498 was > 100 µM (inactive) in each case.
With `O=c1cc(-c2ccccc2)oc2cc(OCCSCCCCCCCCCCSCCOc3ccc4c(=O)cc(-c5ccccc5)oc4c3)ccc12`, the GI50 with KM-20L2 is > 100 µM (inactive); in the assay on M19-MEL, > 100 µM (inactive); in the assay with RXF 631, > 100 µM (inactive); in the assay with LXFL 529 it was > 100 µM (inactive); in the assay with SNB-78, 68.2 µM (inactive); in the assay on HOP-18, > 100 µM (inactive). The GI50 with DMS-114 is > 100 µM (inactive).
`O=C1[C@@H]2C(c3ccccc3F)=NO[C@@H]2C(=O)N1c1ccc(Cc2ccc(N3C(=O)[C@H]4C(c5ccccc5F)=NO[C@H]4C3=O)cc2)cc1`: the GI50 in the assay on KM-20L2, in the assay on DMS-273, in the assay on M19-MEL, in the assay with RXF 631, with LXFL 529 and with SNB-78 was > 100 µM (inactive) in each case. For the same compound, the GI50 with HOP-18 was > 100 µM (inactive); in the assay on XF498, > 87.3 µM (inactive); in the assay on DMS-114, > 100 µM (inactive).
As to `O=C(O)c1[nH]c(C(=O)O)c(CC(F)(F)C(F)(F)C(F)(F)F)c1CC(F)(F)C(F)(F)C(F)(F)F`, the GI50 with KM-20L2, in the assay with DMS-273, with M19-MEL, in the assay with RXF 631, in the assay on LXFL 529 and with SNB-78 was > 100 µM (inactive) in each case. For the same compound, the GI50 in the assay with HOP-18, with XF498 and with DMS-114 was > 100 µM (inactive) throughout.
Take `COC1/C(=C\C(=O)OC(C)(C)C)c2ccccc2N1C(C)=O` (configuration not stated): the GI50 with KM-20L2, in the assay with DMS-273, in the assay with M19-MEL, in the assay with RXF 631, in the assay with LXFL 529 and in the assay on SNB-78 was > 100 µM (inactive) each time. Further, the results for the GI50 in the assay on HOP-18, with XF498 and with DMS-114 were > 100 µM (inactive), 57.5 µM (inactive) and 54.3 µM (inactive), respectively.
With `O=C1/C(=C\c2ccccc2)C2/C(=C\c3ccccc3)C(=O)/C(=C\c3ccccc3)C2/C1=C\c1ccccc1` (configuration not stated), the GI50 with KM-20L2 was 1.78 µM (inactive); in the assay with DMS-273, 0.964 µM (active); in the assay with M19-MEL, 1.53 µM (inactive); with RXF 631, 3.12 µM (inactive); in the assay on LXFL 529, 0.681 µM (active); in the assay on HOP-18, 48 µM (inactive). In addition, in the assay with DMS-114, the GI50 was 1.73 µM (inactive).
Turning to `CCOC(=O)CCn1ncc(Cl)c(Cl)c1=O`, the GI50 in the assay with KM-20L2 was 14.2 µM (inactive); in the assay on DMS-273 it was 9.46 µM (inactive); with M19-MEL, 2.58 µM (inactive); in the assay on RXF 631, 2.97 µM (inactive); with LXFL 529, 3.84 µM (inactive); in the assay on SNB-78 it was 6.22 µM (inactive). Besides, the GI50 in the assay with HOP-18 was 3.99 µM (inactive); in the assay with XF498, 20.5 µM (inactive); with DMS-114 it was 2.1 µM (inactive).
On to `COc1ccc(OC)c(/C=C/[N+](=O)[O-])c1`, for which the GI50 with KM-20L2 is 4.69 µM (inactive); in the assay with DMS-273, 2.61 µM (inactive); with M19-MEL, 2.39 µM (inactive); in the assay with RXF 631, 2.83 µM (inactive); with LXFL 529 it was 1.91 µM (inactive); with SNB-78 it was 6.84 µM (inactive). Besides, the GI50 in the assay on HOP-18 is 1.85 µM (inactive); with XF498 it was 2.94 µM (inactive); in the assay with DMS-114 it was 4.74 µM (inactive).
As for `O=C(O)Cn1c(=O)[nH]c(=O)c2c1ncn2Cc1ccccc1`, the GI50 in the assay with KM-20L2, with DMS-273, with M19-MEL, in the assay with RXF 631, in the assay on LXFL 529 and in the assay with SNB-78 was > 100 µM (inactive) each time. The GI50 in the assay on XF498 and in the assay on DMS-114 was > 100 µM (inactive) throughout.
Turning to `O=C(c1ccccc1)C1OC12C(=O)Nc1ccccc12` (configuration not stated), the GI50 was 28.1 µM (inactive) in the assay with KM-20L2; 38 µM (inactive) in the assay with DMS-273; 30.4 µM (inactive) in the assay on M19-MEL; 46 µM (inactive) in the assay on RXF 631; 16.5 µM (inactive) in the assay on LXFL 529; 43.5 µM (inactive) in the assay on SNB-78. The results for the GI50 in the assay with XF498 and with DMS-114 were 26.2 µM (inactive) and 27 µM (inactive), respectively.
With `COc1cc2cc[n+]3c4cc(OC)c(OC)cc4c(C)cc3c2cc1OC`, the GI50 with KM-20L2 is > 100 µM (inactive); in the assay on DMS-273, > 100 µM (inactive); in the assay with M19-MEL, > 100 µM (inactive); in the assay on RXF 631, > 100 µM (inactive); in the assay with LXFL 529 it was 35.6 µM (inactive); in the assay on SNB-78 it was > 100 µM (inactive). The GI50 in the assay on HOP-18, in the assay with XF498 and with DMS-114 was > 100 µM (inactive) each time.
`COc1nc(/C=N/NC(N)=S)nc(OC)n1`: the GI50 in the assay on KM-20L2 was 35.4 µM (inactive); in the assay on DMS-273, 56.9 µM (inactive); with M19-MEL, 65.3 µM (inactive); with RXF 631, 44.2 µM (inactive); with LXFL 529 it was > 100 µM (inactive); with SNB-78 it was > 100 µM (inactive). In addition, the GI50 in the assay with HOP-18 was > 100 µM (inactive); with XF498 it was > 100 µM (inactive); with DMS-114 it was 47.5 µM (inactive).
For the compound `CCCCCCCCCCCCCP(=O)(O)OCC`, the GI50 in the assay on KM-20L2, in the assay with M19-MEL, in the assay on RXF 631, with LXFL 529, with SNB-78 and in the assay with HOP-18 was > 100 µM (inactive) each time. In addition, the GI50 with DMS-114 is > 100 µM (inactive).
For the compound `COC(=O)CC(C(C(C)=O)C(=O)OCc1ccccc1)N1C(=O)OC(c2ccccc2)C1c1ccccc1` (configuration not stated), the GI50 in the assay on DMS-273 was > 100 µM (inactive) and 78.5 µM (inactive); in the assay on M19-MEL it was 85.1 µM (inactive) and 73.8 µM (inactive); in the assay on RXF 631, 89.7 µM (inactive); in the assay on LXFL 529, 49.1 µM (inactive) and 50.4 µM (inactive); in the assay with XF498, 67.1 µM (inactive); in the assay on DMS-114 it was 30.5 µM (inactive) and 39.4 µM (inactive).

The values above are taken from ChEMBL document CHEMBL1201862, “PubChem BioAssay data set” (2004).
